The target of one experiment is T1, human recombinant COX-2 (Homo sapiens, UniProt P35354).
T1 sequence (P35354 18-604): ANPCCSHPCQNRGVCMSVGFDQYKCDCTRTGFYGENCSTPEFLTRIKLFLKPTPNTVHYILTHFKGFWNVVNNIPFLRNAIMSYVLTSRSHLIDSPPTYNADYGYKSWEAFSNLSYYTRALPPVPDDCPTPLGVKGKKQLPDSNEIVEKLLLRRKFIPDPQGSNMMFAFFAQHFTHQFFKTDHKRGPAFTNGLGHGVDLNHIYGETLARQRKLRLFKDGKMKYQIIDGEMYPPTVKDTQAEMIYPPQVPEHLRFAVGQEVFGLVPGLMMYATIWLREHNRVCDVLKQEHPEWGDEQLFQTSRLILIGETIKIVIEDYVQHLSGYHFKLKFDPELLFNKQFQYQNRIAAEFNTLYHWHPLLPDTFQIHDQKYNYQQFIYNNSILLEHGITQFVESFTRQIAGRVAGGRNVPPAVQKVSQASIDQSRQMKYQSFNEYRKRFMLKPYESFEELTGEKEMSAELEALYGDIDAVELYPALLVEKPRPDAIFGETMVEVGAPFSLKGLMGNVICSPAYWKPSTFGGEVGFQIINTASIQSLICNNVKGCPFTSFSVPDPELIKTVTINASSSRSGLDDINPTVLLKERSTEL
In words: biochemical. The conditions noted are these: purified enzyme. From the text: An example of a COX Inhibitor Screening Assay (Cat. No. 560101 manufactured by Cayman Chemical Company, Ann Harbor, Mich.) directly measures PGF2 produced by SnCl2 reduction of COX-derived PGH2. The prostanoid product may be quantified via enzyme immunoassay (EIA) using a broadly specific antibody that binds to all the major prostaglandin compounds. […] The Cayman COX Inhibitor Screening Assay includes both ovine COX-1 and human recombinant COX-2 enzymes in order to screen isozyme-specific inhibitors.
An assay for prostaglandin is available from Cisbio International, Bedford Mass. One cell line suitable for infection by rhinovirus is A549 (ATCC designation CCL-185), a human epithelial lung carcinoma available from ATCC, Manassas, Va. […] A COX assay is available from Cayman Chemical, Ann Arbor, Mich.

In a further experiment the test system is PGE2 formation. In words: PGE2 formation in cells infected with rhinovirus (Cisbio HTRF assay). In kind it is cell-based, human. The text has this: There are several standard methods available for quantifying PGE2. The HTRF® PGE2 assay (developed by Cisbio International, Cat. No. 62P2APEB) is an example of a highly sensitive method for quantifying PGE2. Its principle is based on HTRF technology (Homogeneous Time-Resolved Fluorescence). It can be performed either in cell supernatants or directly in the presence of whole cells. This method is a competitive immunoassay in which native PGE2 produced by cells, and d2-labelled PGE2 compete for binding to MAb anti-PGE2 labeled with cryptate. The HTRF signal is inversely proportional to the concentration of PGE2 in the calibrator or in the sample. The incubation time and temperature following addition of the HTRF detection reagents has little effect on the assay results providing another level of assay flexibility.
Briefly, consecutive dilutions (within the 0-5000 pg/ml range) of samples may be prepared with the diluent. The reagents are dispensed (as outlined in the protocol) into a 384-well low volume plate (20 ul). Negative and positive controls are included. The plate is covered with a plate sealer and incubated for 5 hours at room temperature or overnight at 4° C. Free PGE2 from the sample competes with […] for binding to the Cryptate conjugated anti-PGE2 antibody. Then the plate is read on a compatible HTRF reader.
(§1) Test compounds may be assayed for inhibition of prostaglandin production via contacting them individually with cells that have been infected with rhinovirus. An assay for prostaglandin is available from Cisbio International, Bedford Mass. One cell line suitable for infection by rhinovirus is A549 (ATCC designation CCL-185), a human epithelial lung carcinoma available from ATCC, Manassas, Va. […] A COX assay is available from Cayman Chemical, Ann Arbor, Mich.

Another experiment has as its target T2, ovine COX-1 (Ovis aries, UniProt P05979).
T2 construct: purchased Cayman Chemical Company 560101
The experiment is described as follows: COX Inhibitor Screening Assay (Cayman), COX-1. In kind it is biochemical.
From the text: An example of a COX Inhibitor Screening Assay (Cat. No. 560101 manufactured by Cayman Chemical Company, Ann Harbor, Mich.) directly measures PGF2 produced by SnCl2 reduction of COX-derived PGH2. The prostanoid product may be quantified via enzyme immunoassay (EIA) using a broadly specific antibody that binds to all the major prostaglandin compounds. Thus, the COX assay is more accurate and reliable than an assay based on peroxidase inhibition. The Cayman COX Inhibitor Screening Assay includes both ovine COX-1 and human recombinant COX-2 enzymes in order to screen isozyme-specific inhibitors. This assay may be an excellent tool which can be used for general inhibitor screening, or to eliminate false positive leads generated by less specific methods.
as §1

Experiment [1] has as its system NF-kB. In words: IL1b-induced NFkB nuclear translocation (Cellomics HitKit), BEAS-2B cells. The conditions noted are these: Homo sapiens, 0.5 h, IL1b 0.5 ng/ml for 30 min, then inhibitor 30 min. It is filed as cell-based. From the text: (§2) Because NF-κB must be in the nucleus to induce gene expression, its translocation is a definitive measure of its activation and marks an earlier event than reporter gene expression. This assay is an example of a 96-well medium throughput technology that can detect NF-κB translocation in several cell types.
(§3) Assays may be performed in standard, high-density microplates, where measurements of the rate and extent of NF-κB translocation are made in intact cells which provides more biological representative information. Cellomics' NF-κB activation kit (Cat. No. K01-001-1) may combine fluorescent reagents and protocols for optimized sample preparation and assays, and requires no cell lysis, purification or filtration steps. After fixation, the plates are stable for extended periods, when stored light-protected at 4° C.
(§4) One may create a fully automated screen to identify compounds that inhibit or activate NF-[…]B on a cell-by-cell basis. Prepared cells can be analyzed using standard fluorescence microscopy or using Cellomics' fully automated HCS Reader with the Cytoplasm to Nucleus Translocation Bioapplication, affording automated plate handling, focusing, image acquisition, analysis, quantification, and data storage.

The test system of experiment [2] is NF-kB. In words: IL1b-induced NFkB nuclear translocation (Cellomics HitKit), A549 cells. In kind it is cell-based. The note with it: Homo sapiens, 0.5 h, IL1b 0.05 ng/ml for 30 min, then inhibitor 30 min.
From the text: as §2, §3, §4

For a further experiment, the system named is IP-10 (CXCL10). The experiment is described as follows: IP-10 level in BEAS-2B cells infected with rhinovirus RV-16. It is filed as cell-based, human. The note with it: BEAS-2B cells infected with RV-16; test ingredient at 5 μM andrographolide content; control 61.99. The text has this:
An in vitro cell line of BEAS-2B cells can be infected with rhinovirus RV-16. The cells are then exposed to various compounds and extracts and subsequently levels of respiratory biomarker proteins can be assayed. Extracts and compounds are identified as regulating the respiratory biomarker proteins by monitoring the levels of the respiratory biomarker proteins after exposure of the infected cells to the extracts and compounds and comparing to the levels of the respiratory biomarker proteins in infected cells that have not been exposed to extracts and compounds.
In the example, the test ingredients are extracts of the herb andrographis paniculata, or its principal component, andrographolide. The test ingredients are tested at a level of 5 μM andrographolide content. The respiratory biomarker protein is IP-10 (CXCL10), a chemotactic agent.

Read-outs that look alike come from different tables or passages of the source.

T2 sequence (P05979 25-600): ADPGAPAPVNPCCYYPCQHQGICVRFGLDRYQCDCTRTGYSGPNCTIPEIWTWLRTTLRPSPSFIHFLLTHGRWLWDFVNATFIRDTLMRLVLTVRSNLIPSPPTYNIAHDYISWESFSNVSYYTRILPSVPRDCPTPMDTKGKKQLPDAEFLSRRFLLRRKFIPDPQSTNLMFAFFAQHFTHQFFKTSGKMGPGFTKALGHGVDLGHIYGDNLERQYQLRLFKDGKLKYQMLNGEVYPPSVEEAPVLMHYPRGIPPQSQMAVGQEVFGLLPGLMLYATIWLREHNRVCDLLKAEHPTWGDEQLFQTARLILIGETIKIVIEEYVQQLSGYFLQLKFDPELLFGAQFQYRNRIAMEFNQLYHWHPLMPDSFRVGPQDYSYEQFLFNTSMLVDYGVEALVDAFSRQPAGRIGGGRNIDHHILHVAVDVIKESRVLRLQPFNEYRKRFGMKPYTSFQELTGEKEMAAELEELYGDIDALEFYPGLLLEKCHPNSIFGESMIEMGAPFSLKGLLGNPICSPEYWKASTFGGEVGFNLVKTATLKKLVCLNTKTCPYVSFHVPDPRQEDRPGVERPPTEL

Take `CCCc1ccc(O)c(OC)c1` [DIHYDROEUGENOL, dihydroeugenol]: the IC50 was determined as 75 µM at human recombinant COX-2; 0.38 µM in the experiment on PGE2 formation (cells infected with rhinovirus (A549 named as suitable line), read-out: IC50 PGE2 formation); 82 µM on ovine COX-1 (purified enzyme, read-out: IC50 COX-1 activity).
Take `COc1cc(/C=C/C(=O)CC(=O)/C=C/c2ccc(O)c(OC)c2)ccc1O` [Curcumin, curcumin]: the IC50 in the experiment on NF-kB [1] amounted to 5.9 µM; in the experiment with NF-kB [2], 37.5 µM.
Take `CCOc1ccc2c(c1)C(C)=CC(C)(C)N2` [ETHOXYQUIN, ethoxyquin]: the IC50 on human recombinant COX-2 was 54 µM; in the experiment on PGE2 formation (Homo sapiens, cells infected with rhinovirus (A549 named as suitable line), read-out: IC50 PGE2 formation), 0.03 µM; against ovine COX-1, 459 µM.
`C=CCc1ccc(O)c(OC)c1` [EUGENOL, eugenol]: the IC50 with PGE2 formation (Homo sapiens, A549, read-out: IC50 PGE2 formation) worked out at 0.42 µM; on ovine COX-1, 42 µM.
In the case of `C=C1CC[C@@H]2[C@](C)(CO)[C@H](O)CC[C@@]2(C)[C@@H]1C/C=C1/C(=O)OC[C@H]1O` [Andrographolide, andrographolide], the “IP-10 (CXCL10)” value in the experiment on IP-10 (CXCL10) stood at 18.07 pg/mL.

Source of the values: patent publication US20090155180A1, “Methods and targets for identifying compounds for regulating rhinovirus infection” (priority 2007, published 2009).
